In PubChem BioAssay AID2060888 (Molecular Pharmacology Branch, DTP, NCI, 2025):

System: 695427-040-R-J1-PDC complex spheroid viability
Assay: Anticancer human tumor 695427-040-R-J1-PDC patient-derived colon adenocarcinoma cell line growth inhibition [RAS]
Settings: for IC50: curve of first compound; for viability, T/C: stronger effect = lower value; active means viability on the fitted dose curve at most 10% of control; inactive means the rest
Outline: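 Tumour cells grown as complex spheroids with HUVEC endothelial cells and mesenchymal stem cells, treated with RAS pathway inhibitor combinations. Each agent spans half-log steps from near clinical Cmax, or 10 microM where Cmax is unknown.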

[1] = second compound 0.000949 µM, first compound 0.0316 µM
[2] = second compound 0.000949 µM, first compound 0.1 µM
[3] = second compound 0.000949 µM, first compound 0.316 µM
[4] = second compound 0.000949 µM, first compound 1 µM
[5] = second compound 0.003 µM, first compound 0.0316 µM
[6] = second compound 0.003 µM, first compound 0.1 µM
[7] = second compound 0.003 µM, first compound 0.316 µM
[8] = second compound 0.003 µM, first compound 1 µM
[9] = second compound 0.00949 µM, first compound 0.0316 µM
[10] = second compound 0.00949 µM, first compound 0.1 µM
[11] = second compound 0.00949 µM, first compound 0.316 µM
[12] = second compound 0.00949 µM, first compound 1 µM
[13] = second compound 0.03 µM, first compound 0.0316 µM
[14] = second compound 0.03 µM, first compound 0.1 µM
[15] = second compound 0.03 µM, first compound 0.316 µM
[16] = second compound 0.03 µM, first compound 1 µM
[17] = second compound 0.0949 µM, first compound 0.0316 µM
[18] = second compound 0.0949 µM, first compound 0.1 µM
[19] = second compound 0.0949 µM, first compound 0.316 µM
[20] = second compound 0.0949 µM, first compound 1 µM
[21] = second compound 0.3 µM, first compound 0.0316 µM
[22] = second compound 0.3 µM, first compound 0.1 µM
[23] = second compound 0.3 µM, first compound 0.316 µM
[24] = second compound 0.3 µM, first compound 1 µM
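Further: viability read after seven days of drug exposure.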
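Wherever viability, T/C is given: 100% = DMSO vehicle control viability.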

C[C@@H](NC(=O)c1ncnc(N)c1Cl)c1ncc(C(=O)Nc2cc(C(F)(F)F)c(Cl)cn2)s1 + CCn1c(-c2cc(N3CCN(C)CC3)cnc2C(C)OC)c2c3cc(ccc31)-c1csc(n1)CC(NC(=O)C1CC1C)C(=O)N1CCCC(N1)C(=O)OCC(C)(C)C2
< 31.6 nM: IC50 (second compound 0.3 µM)
> 10000 nM: IC50 (second compound 0.000949 µM) | IC50 (second compound 0.003 µM) | IC50 (second compound 0.00949 µM) | IC50 (second compound 0.03 µM) | IC50 (second compound 0.0949 µM)
inactive: viability, T/C [1] 77.4% | viability, T/C [2] 94% | viability, T/C [3] 84.1% | viability, T/C [4] 87.6% | viability, T/C (second compound 0.000949 µM, first compound 3.16 µM) 108% | viability, T/C (second compound 0.000949 µM, first compound 10 µM) 78.5% | viability, T/C [5] 117% | viability, T/C [6] 91% | viability, T/C [7] 99.6% | viability, T/C [8] 85.9% | viability, T/C (second compound 0.003 µM, first compound 3.16 µM) 117% | viability, T/C (second compound 0.003 µM, first compound 10 µM) 70.1% | viability, T/C [9] 95.3% | viability, T/C [10] 83.4% | viability, T/C [11] 83.6% | viability, T/C [12] 84.4% | viability, T/C (second compound 0.00949 µM, first compound 3.16 µM) 85.6% | viability, T/C (second compound 0.00949 µM, first compound 10 µM) 53.1% | viability, T/C [13] 65.8% | viability, T/C [14] 71% | viability, T/C [15] 76.3% | viability, T/C [16] 72.4% | viability, T/C (second compound 0.03 µM, first compound 3.16 µM) 81.3% | viability, T/C (second compound 0.03 µM, first compound 10 µM) 55.6% | viability, T/C [17] 56.2% | viability, T/C [18] 58.2% | viability, T/C [19] 58.4% | viability, T/C [20] 48.7% | viability, T/C (second compound 0.0949 µM, first compound 3.16 µM) 72.4% | viability, T/C (second compound 0.0949 µM, first compound 10 µM) 51.2% | viability, T/C [21] 36.4% | viability, T/C [22] 44.2% | viability, T/C [23] 44.4% | viability, T/C [24] 45.4% | viability, T/C (second compound 0.3 µM, first compound 3.16 µM) 50.1% | viability, T/C (second compound 0.3 µM, first compound 10 µM) 33%

C=CC(=O)N1CCN(c2nc(OCC3CCCN3C)nc3c(F)c(-c4nc(N)cc(C)c4C(F)(F)F)c(Cl)cc23)C(C)C1 (centres undefined) + CCn1c(-c2cccnc2C(C)OC)c2c3cc(ccc31)N1CCOC(CC(NC(=O)C(C(C)C)N(C)C(=O)C3(F)CCN(C(=O)C#CC(C)(C)N(C)C)CC3)C(=O)N3CCCC(N3)C(=O)OCC(C)(C)C2)C1
> 1000 nM: IC50 (second compound 0.000949 µM) | IC50 (second compound 0.003 µM) | IC50 (second compound 0.00949 µM) | IC50 (second compound 0.03 µM) | IC50 (second compound 0.0949 µM) | IC50 (second compound 0.3 µM)
inactive: viability, T/C (second compound 0.000949 µM, first compound 0.00316 µM) 113% | viability, T/C (second compound 0.000949 µM, first compound 0.01 µM) 102% | viability, T/C [1] 76.5% | viability, T/C [2] 75.5% | viability, T/C [3] 95.3% | viability, T/C [4] 93.1% | viability, T/C (second compound 0.003 µM, first compound 0.00316 µM) 109% | viability, T/C (second compound 0.003 µM, first compound 0.01 µM) 98.4% | viability, T/C [5] 94% | viability, T/C [6] 77% | viability, T/C [7] 99.4% | viability, T/C [8] 106% | viability, T/C (second compound 0.00949 µM, first compound 0.00316 µM) 104% | viability, T/C (second compound 0.00949 µM, first compound 0.01 µM) 116% | viability, T/C [9] 85.1% | viability, T/C [10] 80% | viability, T/C [11] 105% | viability, T/C [12] 95% | viability, T/C (second compound 0.03 µM, first compound 0.00316 µM) 97.1% | viability, T/C (second compound 0.03 µM, first compound 0.01 µM) 104% | viability, T/C [13] 85.2% | viability, T/C [14] 75.9% | viability, T/C [15] 100% | viability, T/C [16] 108% | viability, T/C (second compound 0.0949 µM, first compound 0.00316 µM) 96.9% | viability, T/C (second compound 0.0949 µM, first compound 0.01 µM) 101% | viability, T/C [17] 107% | viability, T/C [18] 84.4% | viability, T/C [19] 102% | viability, T/C [20] 107% | viability, T/C (second compound 0.3 µM, first compound 0.00316 µM) 84.2% | viability, T/C (second compound 0.3 µM, first compound 0.01 µM) 86.4% | viability, T/C [21] 89.1% | viability, T/C [22] 88.8% | viability, T/C [23] 88.7% | viability, T/C [24] 78%
